The test system of data set [1] is mouse-transplanted tumor Heps. Briefly: Mouse-transplanted tumor animal model, Heps. Particulars: Heps mice; for Number of Animal End of the test: 8 at beginning. It is filed as in vivo, ICR mice. Here is the method:
(§1) This test example adopts mouse-transplanted tumor animal model method to test the inhibitory effects of the complexes provided by the present invention on animal-transplanted tumor S180 sarcoma and Heps tumor.
Get ICR mice and inoculate solid tumor according to the research method of transplanted tumor. Weigh the mice 24 hours after the inoculation and randomly divide them into 7 groups, 8 mice per drug group. Administrate drug by intravenous injection for the first time 24 hours (d1) after the inoculation, administrate drug once every other day for a total of 4 times, at a dose of 0.4 ml/20 g each time. Kill and weigh the tumor-bearing mice days (d10) after the inoculation, separate and weigh the tumor mass, and conduct statistical treatment of all the obtained data (t-test). The inhibitory effect of the complexes on mouse-transplanted tumors S180 and Heps is shown in Table 2 and Table 3 respectively.

Data set [2] deals with mouse-transplanted tumor S180 sarcoma. Briefly: Mouse-transplanted tumor animal model, S180. It is filed as in vivo, ICR mice. Conditions: S180 mice; for Number of Animal End of the test: 10 at beginning. The protocol:
as §1
Get ICR mice and inoculate solid tumor according to the research method of transplanted tumor. […] Administrate drug by intravenous injection for the first time 24 hours (d1) after the inoculation, administrate drug once every other day for a total of 4 times, at a dose of 0.4 ml/20 g each time. Kill and weigh the tumor-bearing mice days (d10) after the inoculation, separate and weigh the tumor mass, and conduct statistical treatment of all the obtained data (t-test). The inhibitory effect of the complexes on mouse-transplanted tumors S180 and Heps is shown in Table 2 and Table 3 respectively.

Data set [3] in a line: Acute toxicity test in mice (iv), Bliss method. Conditions: both, Kunming, mouse, in vivo, iv. The protocol: (§2) The toxicity of the two platinum complexes provided by the present invention was preliminarily researched.
(§3) Select 50 Kunming mice of clean grade, 25 males and 25 females, with body weight 18˜22 g, randomly divide them into 5 groups, 10 mice in each group, and fast for 12 hours. […] The acceptance capacity of an animal is 0.4 mL/20 g. Observe continuously for 14 days after administration, and record toxic symptoms and death of mice.

The next data set in a line: Solubility in water. It is filed as physicochemical. The protocol: As for the platinum complex prepared by the method of the present invention, the molecular structures of the compounds are determined by H NMR, HR ESI-MS and elemental analysis and their solubility in water was determined.
Data set [4] concerns human large cell lung cancer cell NCI-H460. Briefly: MTT cytotoxicity test, NCI-H460. Type of data set: cell-based. Conditions: 48 hours. Here is the method: (§4) This test example adopts MTT method to conduct cytotoxicity test on the complexes of the present invention and the common clinical anti-cancer platinum drugs.
(§5) Select cells in logarithmic phase, count them and inoculate them in a 96-well culture plate, at about 8000-10000 cells/well. Cultivate the cells overnight, administrate drug after the cells are attached to the wall, and set a drug group, a positive control group and a negative control group. The complex to be tested is prepared into a stock solution by using 5% glucose aqueous solution. Before use, it is diluted with cell culture medium into solutions at a series of concentrations. Each concentration has 3 duplicate wells. Cultivate for 48 hours after administration of drug, add 20 μL of 5 mg/mL MTT, incubate at 37° C. for 4 hours, remove the supernate and add 150 μL of DMSO-dissolved formazan. Determine OD value of every well at 490 nm wavelength by microplate reader, calculate inhibition rate, draw a concentration-inhibition rate curve and calculate value IC50.

Data set [5] has as its system human erythroleukemia cell K562. Briefly: MTT cytotoxicity test, K562. Type of data set: cell-based. Particulars: 48 hours. Here is the method: as §4, §5
The test system of data set [6] is human hepatoma carcinoma cell SMMC-7721. As to the kind of experiment: MTT cytotoxicity test, SMMC-7721. It is filed as cell-based. Particulars: SMMC-7721, MTT, 48 hours. Here is the method: as §4, §5
Data set [7] concerns human umbilical vein endothelial cell HUVEC. As to the kind of experiment: MTT cytotoxicity test, HUVEC. It is filed as cell-based. Particulars: 48 hours. Here is the method:
as §4, §5
Background: Tetrazolium dyes change colour on reduction, which living cells bring about.

The subject of data set [8] is human breast cancer drug resistant cell MCF-7. As to the kind of experiment: MTT cytotoxicity test, MCF-7 drug resistant. It is filed as cell-based. Particulars: 48 hours. The protocol:
as §4, §5

Data set [9] deals with human lung cancer cell A549. As to the kind of experiment: MTT cytotoxicity test, A549. Particulars: 48 hours. It is filed as cell-based. Here is the method:
as §4, §5

Data set [10] deals with human hepatoma carcinoma cell HepG-2. As to the kind of experiment: MTT cytotoxicity test, HepG2. Particulars: 48 hours. Type of data set: cell-based. Here is the method: as §4, §5
In data set [11] the test system is human breast cancer cell MCF-7. Briefly: MTT cytotoxicity test, MCF-7. Type of data set: cell-based. Conditions: MCF-7, MTT, 48 hours. The protocol:
as §4, §5

For data set [12], the system named is human breast cancer cell MDA-MB-231. As to the kind of experiment: MTT cytotoxicity test, MDA-MB-231. It is filed as cell-based. Conditions: MDA-MB-231, MTT, 48 hours. Here is the method:
as §4, §5

Data set [13] deals with human gastric adenocarcinoma cell BGC823. Briefly: MTT cytotoxicity test, BGC823. Type of data set: cell-based. Particulars: 48 hours. The protocol: as §4, §5
Data set [14] concerns human acute promyelocytic leukemia cell NB4. Briefly: MTT cytotoxicity test, NB4. It is filed as cell-based. Conditions: 48 hours. Here is the method:
as §4, §5

The next data set has as its system Kunming mice. Briefly: Acute toxicity test in mice (iv), Bliss method. Particulars: mice, iv via caudal vein, 14 days observation, Bliss method. Here is the method: as §2, §3
Another data set deals with mouse. Conditions: cited from earlier work.
Where [15] appears, read: 25 mg/kg iv every other day x4, X ± SD.

Structures are written as SMILES. pIC50: −log10 of the molar value.

By LD50 is commonly meant the dose at which mortality reaches 50%. Read a high LD50 as lower toxicity. The term solubility denotes the dissolved amount per volume that the medium holds. A lower solubility goes with little dissolved substance. On to `[NH2][Pt]1([NH2])[O]C(=O)C2(CC(=O)C2)C(=O)[O]1` [GSH-5, cis-[3-ketone cyclobutane-1,1-dicarboxylic acid radical.diamineplatinum (II)]], for which the “Body weight (g) After administration” value worked out at 22.13 ± 3.52 g in data set [1] (setting [15]); 13.50 ± 0.50 g in data set [1] (50 mg/kg iv every other day x4, X ± SD); 22.50 ± 1.91 g in data set [2] (15 mg/kg iv every other day x4, X ± SD); 18.13 ± 1.76 g in data set [2] (30 mg/kg iv every other day x4, X ± SD). Further, the “Number of Animal End of the test” value is 8 in [1] (25 mg/kg iv every other day x4), 2 in data set [1] (50 mg/kg iv every other day x4), 10 in [2] (15 mg/kg iv every other day x4) and 8 in data set [2] (30 mg/kg iv every other day x4). The compound further had a median lethal dose (LD50) at 14 days in [3] of 150 mg/kg. Further, the solubility in “Solubility in water” was 16 mg/mL.
In general, pIC50 refers to the negative decadic logarithm of the IC50, by convention in mol/L. Read a high pIC50 as a small IC50. As to `O=C1[O][Pt]2([NH][C@@H]3CCCC[C@H]3[NH]2)[O]C1=O` [Oxaliplatin, oxaliplatin], the pIC50 in [4] is 4.64; in [5] it was 4.63; in data set [6] it was 4.49; in data set [7], 4.79; in data set [8], 3.45; in data set [9], 4.15. In addition, the pIC50 in [10] is 4.57; in data set [11], 4.59; in data set [12], 4.54; in data set [13] it was 5.10.
For `N[C@@H]1CCCC[C@H]1N.O=C1CC2(C1)C(=O)[O][Pt][O]C2=O` [GSH-6, cis-[3-ketone-1,1-cyclobutane-dicarboxylic acid radical.trans-1,2-cyclohexanediamineplatinum(II)]], the pIC50 was 4.92 in [4]; 4.44 in [5]; 5.51 in data set [14]; 3.66 in [6]; 4.16 in data set [7]; 2.87 in data set [8]. In addition, the pIC50 in [9] was 4.32; in data set [10], 4.50; in data set [11] it was 4.47; in data set [12], 4.44; in data set [13] it was 5.05. For the same compound, the “Body weight (g) After administration” value in data set [1] (setting [15]) is on record as 18.10 ± 1.10 g; in data set [2] (10 mg/kg iv every other day x4, X ± SD), 20.60 ± 2.50 g; in [2] (20 mg/kg iv every other day x4, X ± SD), 18.60 ± 2.24 g. The “Tumor inhibition rate (%)” value came to 35.44% in data set [1] (25 mg/kg iv every other day x4, d10); 33.13% in data set [2] (10 mg/kg iv every other day x4, d10); 46.61% in data set [2] (20 mg/kg iv every other day x4, d10). The “Tumor weight” value in data set [1] (25 mg/kg iv every other day x4, d10, X ± SD) is reported as 0.84 ± 0.17 g; in data set [2] (10 mg/kg iv every other day x4, d10, X ± SD) it was 0.65 ± 0.14 g; in data set [2] (20 mg/kg iv every other day x4, d10, X ± SD), 0.52 ± 0.13 g. Moreover, the “Number of Animal End of the test” value in [1] (25 mg/kg iv every other day x4) is 8; in data set [1] (50 mg/kg iv every other day x4) it was 0; in [2] (10 mg/kg iv every other day x4) it was 10; in data set [2] (20 mg/kg iv every other day x4), 10. In addition, the “LD50 (acute toxicity test)” value in the data set on Kunming mice was found to be 100 mg/kg.
Turning to `N.N.O=C([O-])C1(C(=O)[O-])CCC1.[Pt+2]` [Carboplatin, carboplatin], the pIC50 in data set [4] is 4.51; in data set [5] it was 3.93; in data set [14], 4.90; in [6], 4.28; in data set [7] it was 3.99; in data set [8], 3.34. Also, the negative-log IC50 (pIC50) is 3.86 in data set [9]; 4.00 in [10]; 3.96 in data set [11]; 4.03 in data set [12]; 4.36 in [13]. Besides, the “mouse LD50 values in literature” value in the data set with mouse is 139.00 mg/kg.
On to `N.N.[Cl][Pt][Cl]` [Cis-platinum, cis-platinum], for which the pIC50 was 4.96 in data set [5]; 4.95 in [7]; 4.48 in [8]; 4.78 in data set [9]; 5.68 in data set [10]; 4.48 in data set [11]. For the same compound, the pIC50 is 4.74 in data set [12] and 5.26 in [13].

The values above are taken from US9227991B2, “Anti-tumor bivalent platinum complex and preparation method for complex and ligand of complex” (SOUTHEAST UNIVERSITY, priority 2012, dated 2016).
